From the supplement of paper PMC8671470
± gives the standard deviation of the averaged measurements.

Tested on: HL-60
Assay: cell viability (% survival relative to DMSO control); higher = less cytotoxic
Details: 72 h
Outline: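 HL-60 cells grown in RPMI 1640 with 10% FBS were rescreened against the full library in 384-well plates, in duplicate, at five tenfold concentrations from 1 to 10,000 nM, alongside DMSO or 100 nM of one of three metabolic inhibitors for 72 h at 37 °C, 5% CO2. Reference wells contained DMSO or 10 μM proteasome inhibitor. Viability was read with CellTiter-Glo and normalised to these reference wells, and where reported, area under the curve was taken from four-parameter log-logistic fits in drc and PharmacoGx.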

[1] = 0.001 µM, co-treatment: AZD3965 100 nM
[2] = 0.001 µM, co-treatment: DMSO vehicle
[3] = 0.001 µM, co-treatment: GSK2194069 100 nM
[4] = 0.001 µM, co-treatment: pictilisib 100 nM
[5] = 0.01 µM, co-treatment: AZD3965 100 nM
[6] = 0.01 µM, co-treatment: DMSO vehicle
[7] = 0.01 µM, co-treatment: GSK2194069 100 nM
[8] = 0.01 µM, co-treatment: pictilisib 100 nM
[9] = 0.1 µM, co-treatment: AZD3965 100 nM
[10] = 0.1 µM, co-treatment: DMSO vehicle
[11] = 0.1 µM, co-treatment: GSK2194069 100 nM
[12] = 0.1 µM, co-treatment: pictilisib 100 nM
[13] = 1 µM, co-treatment: AZD3965 100 nM
[14] = 1 µM, co-treatment: DMSO vehicle
[15] = 1 µM, co-treatment: GSK2194069 100 nM
[16] = 1 µM, co-treatment: pictilisib 100 nM
[17] = 10 µM, co-treatment: AZD3965 100 nM
[18] = 10 µM, co-treatment: DMSO vehicle
[19] = 10 µM, co-treatment: GSK2194069 100 nM
[20] = 10 µM, co-treatment: pictilisib 100 nM

SMILES | cell viability [1] [%] | cell viability [2] [%] | cell viability [3] [%] | cell viability [4] [%] | cell viability [5] [%] | cell viability [6] [%] | cell viability [7] [%] | cell viability [8] [%] | cell viability [9] [%] | cell viability [10] [%] | cell viability [11] [%] | cell viability [12] [%] | cell viability [13] [%] | cell viability [14] [%] | cell viability [15] [%] | cell viability [16] [%] | cell viability [17] [%] | cell viability [18] [%] | cell viability [19] [%] | cell viability [20] [%]
Sc1ncnc2nc[nH]c12 [6-mercaptopurine] | 101.3 ± 0.71 | 104 ± 1.1 | 99.93 ± 0.86 | 102 ± 1.8 | 102.8 ± 0.97 | 98.8 ± 7 | 106 ± 2.9 | 108 ± 6.8 | 96.3 ± 2 | 97.9 ± 2.4 | 95.62 ± 0.77 | 91.2 ± 1 | 101.2 ± 0.68 | 102 ± 4.9 | 89.8 ± 13 | 98.3 ± 10 | 23.9 ± 2 | 35.1 ± 1.3 | 35.9 ± 3 | 32.6 ± 0.66
CCOC(=O)N1c2ccc(C(F)(F)F)cc2[C@@H](N(Cc2cc(C(F)(F)F)cc(C(F)(F)F)c2)C(=O)OC)C[C@H]1CC [Torcetrapib] | 101 ± 1.8 | 104.8 ± 1 | 101 ± 10 | 113 ± 16 | 98.6 ± 2.3 | 99.13 ± 0.66 | 104 ± 15 | 105 ± 22 | 97.5 ± 4 | 98.7 ± 8.2 | 88 ± 9.7 | 83.6 ± 18 | 97.7 ± 6.2 | 103 ± 6.9 | 94.9 ± 7.2 | 100 ± 4.2 | 98.8 ± 5.5 | 100 ± 1.6 | 95.4 ± 16 | 117 ± 21
C=CCc1ccc2c(c1O)C(=O)c1ccccc1C2=O [R162] | 106 ± 5.3 | 103 ± 1.6 | 102 ± 2.1 | 102 ± 18 | 99.12 ± 0.61 | 103 ± 3.5 | 103 ± 8.4 | 101 ± 10 | 104 ± 4.1 | 98.1 ± 2.4 | 98.5 ± 4.3 | 101 ± 7.5 | 102 ± 1.3 | 100.6 ± 0.84 | 100 ± 2.6 | 104 ± 2.5 | 106 ± 4.2 | 97.8 ± 2.4 | 97.07 ± 0.71 | 90.6 ± 9.3
O=C(COc1ccc(C(=O)c2ccccc2)cc1)NC1CCN(Cc2ccccc2)CC1 [AdipoRon] | 101 ± 1.2 | 99.7 ± 4.2 | 105 ± 6.7 | 97.7 ± 7.3 | 99.9 ± 9.8 | 100.3 ± 0.47 | 103 ± 5.5 | 104 ± 8 | 106 ± 2 | 104 ± 5.3 | 101 ± 3.1 | 97.7 ± 3.8 | 98.45 ± 0.62 | 80.8 ± 30 | 92.1 ± 7.6 | 92.4 ± 10 | 105 ± 3.6 | 105 ± 5.4 | 93.3 ± 6.3 | 91.2 ± 1.6
OCCN1CCN(CCCN2c3ccccc3Sc3ccc(Cl)cc32)CC1 [Perphenazine] | 101 ± 1.7 | 105 ± 2.5 | 98.1 ± 2.6 | 99.74 ± 0.41 | 99.4 ± 5.2 | 102 ± 1.6 | 101 ± 11 | 105 ± 2 | 107 ± 5.8 | 105 ± 4.4 | 95.1 ± 16 | 107 ± 8.5 | 98.6 ± 1.1 | 103.72 ± 0.059 | 97.5 ± 15 | 109 ± 5.6 | 86.3 ± 7 | 91.3 ± 5.4 | 55.4 ± 12 | 61.7 ± 8
O=C(O)C(Cl)Cl [Dichloroacetate] | 96.1 ± 3.5 | 96.5 ± 1.4 | 98.6 ± 9.5 | 89.5 ± 5.3 | 105 ± 4.1 | 104 ± 6.4 | 104 ± 2 | 100 ± 12 | 104 ± 4 | 102 ± 2.5 | 96.3 ± 9.7 | 91 ± 4 | 101 ± 2.4 | 101 ± 2.9 | 98.3 ± 5.9 | 99.9 ± 2.8 | 101 ± 1.1 | 100.4 ± 0.25 | 102.8 ± 0.97 | 97 ± 5.1
